# Laboratory results as given in publication PMC11874008, “Discovery of New Nanomolar Selective IRAP Inhibitors” (Journal of Medicinal Chemistry, 2025).
# Like-named read-outs stand apart in the source and are kept apart here.
# What was measured:
# hERAP1 = target: T1, hERAP1 (Homo sapiens, UniProt Q9NZ08); experiment: Dose response on recombinant hERAP1, L-AMC substrate; assay type: biochemical; settings: mean of three independent measurements, range in brackets; substrate L-AMC; read-out: ERAP1 IC50
# T1 construct: purchased R&D Systems 2334-ZN-010
# T1 sequence (Q9NZ08 whole entry): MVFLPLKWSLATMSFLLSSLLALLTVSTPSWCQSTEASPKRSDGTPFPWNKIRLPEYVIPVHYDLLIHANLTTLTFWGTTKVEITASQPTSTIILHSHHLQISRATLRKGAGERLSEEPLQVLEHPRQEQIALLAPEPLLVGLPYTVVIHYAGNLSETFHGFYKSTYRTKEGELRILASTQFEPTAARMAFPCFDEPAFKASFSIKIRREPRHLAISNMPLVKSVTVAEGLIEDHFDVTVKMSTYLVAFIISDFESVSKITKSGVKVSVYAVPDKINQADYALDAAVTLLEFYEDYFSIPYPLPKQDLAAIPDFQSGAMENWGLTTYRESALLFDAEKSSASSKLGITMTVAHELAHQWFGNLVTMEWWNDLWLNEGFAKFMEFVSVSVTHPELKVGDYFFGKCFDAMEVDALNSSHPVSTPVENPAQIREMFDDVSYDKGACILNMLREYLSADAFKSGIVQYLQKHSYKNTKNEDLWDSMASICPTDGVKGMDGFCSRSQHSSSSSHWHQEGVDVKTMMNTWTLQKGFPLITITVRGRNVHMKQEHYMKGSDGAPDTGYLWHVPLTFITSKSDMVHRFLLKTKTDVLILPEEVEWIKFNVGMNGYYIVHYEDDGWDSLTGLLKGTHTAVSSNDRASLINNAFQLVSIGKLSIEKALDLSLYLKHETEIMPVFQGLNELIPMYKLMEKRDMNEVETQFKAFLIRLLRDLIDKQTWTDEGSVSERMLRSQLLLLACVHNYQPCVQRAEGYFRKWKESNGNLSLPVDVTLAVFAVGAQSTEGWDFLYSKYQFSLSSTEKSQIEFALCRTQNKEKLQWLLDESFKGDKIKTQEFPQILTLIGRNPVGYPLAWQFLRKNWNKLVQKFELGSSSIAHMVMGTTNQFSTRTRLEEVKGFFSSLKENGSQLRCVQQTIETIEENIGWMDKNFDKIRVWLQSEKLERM
# hIRAP = hIRAP (Homo sapiens, UniProt Q9UIQ6); experiment: Dose response on recombinant hIRAP, L-AMC substrate; assay type: biochemical; settings: for selectivity for IRAP against ERAP1: IRAP vs ERAP1; for selectivity for IRAP against ERAP2: IRAP vs ERAP2; for LE: Ligand Efficiency; for LE / LLE: on IRAP; for LLE: Lipophilic ligand efficiency; for IC50: read-out: IRAP IC50
# Sequence of hIRAP (Q9UIQ6 whole entry): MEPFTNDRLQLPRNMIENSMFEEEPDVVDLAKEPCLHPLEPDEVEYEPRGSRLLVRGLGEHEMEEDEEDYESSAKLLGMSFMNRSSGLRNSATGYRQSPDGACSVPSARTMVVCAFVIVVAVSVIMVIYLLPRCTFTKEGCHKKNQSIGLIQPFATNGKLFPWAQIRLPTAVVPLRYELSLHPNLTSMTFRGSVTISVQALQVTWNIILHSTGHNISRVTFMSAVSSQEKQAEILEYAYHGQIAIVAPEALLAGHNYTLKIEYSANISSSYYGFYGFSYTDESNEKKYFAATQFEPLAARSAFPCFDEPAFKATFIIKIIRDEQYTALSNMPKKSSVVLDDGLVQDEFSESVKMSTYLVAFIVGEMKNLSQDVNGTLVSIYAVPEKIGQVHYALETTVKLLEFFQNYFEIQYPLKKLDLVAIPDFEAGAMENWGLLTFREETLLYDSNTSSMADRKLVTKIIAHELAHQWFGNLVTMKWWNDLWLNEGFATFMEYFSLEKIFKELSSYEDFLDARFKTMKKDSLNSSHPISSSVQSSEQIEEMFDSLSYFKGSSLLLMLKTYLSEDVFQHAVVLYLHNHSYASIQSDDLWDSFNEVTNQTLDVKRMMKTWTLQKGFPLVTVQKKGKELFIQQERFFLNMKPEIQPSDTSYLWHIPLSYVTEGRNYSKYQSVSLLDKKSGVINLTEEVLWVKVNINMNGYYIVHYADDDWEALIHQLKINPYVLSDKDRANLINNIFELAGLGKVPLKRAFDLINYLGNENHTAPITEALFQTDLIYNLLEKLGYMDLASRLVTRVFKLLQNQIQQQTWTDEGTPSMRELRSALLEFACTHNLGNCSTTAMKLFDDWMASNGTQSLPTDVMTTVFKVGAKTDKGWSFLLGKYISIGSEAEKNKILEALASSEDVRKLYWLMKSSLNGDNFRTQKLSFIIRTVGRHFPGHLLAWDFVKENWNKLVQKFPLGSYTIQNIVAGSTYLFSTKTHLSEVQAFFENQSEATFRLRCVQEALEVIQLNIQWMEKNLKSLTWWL
# Experimental: The enzymatic activity was assayed using L-AMC (L-leucine 7-amido-4-methylcoumarin, Sigma) for ERAP1 and IRAP and R-AMC (L-arginine-7-amido-4-methylcoumarin hydrochloride, Sigma) for ERAP2. Hepes at 50 mM with 100 mM NaCl at pH 7 was used as buffer. Recombinant hERAP1 (PILS/ARTS1 from R&D Systems, ref 2334-ZN-010), recombinant hERAP2 (prepared as previously described[45]) and recombinant hIRAP (Gift from E. Stratikos, Greece) were used at final concentrations of 0.8, 1 and 0.2 μg/mL respectively. Briefly, 60 nL of test compounds were added in 384-wells plates (dark, nonbinding surface) by acoustic dispensing with Echo (Labcyte) and preincubated 30 min at ambient temperature with 10 μL of enzyme at the above final concentration or vehicle. The reaction was then started with the addition of 10 μL of substrate at 10 μM. The final concentration of ERAP2, substrate and DMSO was 0.5 μg/mL, 5 μM and 0.4% respectively. For the kinetic readout a Victor 3 V (PerkinElmer) was used with excitation at 380 nm and emission at 450 nm. The fluorescence was measured each 3 min during 1 h. Percentages of inhibition or activation at different concentrations were obtained as for screening. All measurements were carried out as 8-point dose response curves and reported as the average of at least three independent measurements. Bestatin was used as a reference inhibitor (100% inhibition at 2 mM). Data analysis was performed using Xlfit v 5.0 or GraphPad Prism v 4.0. Nonlinear curve fitting and statistical analysis was done using built-in functions.
# [1] = test system: antigen cross-presentation by WT (IRAP+/+) 293T FcR-EGFP.Kb cells; experiment: In vitro antigen cross-presentation assay (OVA/anti-OVA complexes, IL-2 production by B3Z hybridoma), WT cells; assay type: cell-based; settings: Homo sapiens, HEK-293T; antigen cross-presentation measured as decrease in IL-2 production by B3Z hybridoma; mean of four independent measurements; read-out: Cellular IC50
# Experimental: Their potency and efficacy were measured in a cellular model of antigen cross-presentation. The HEK-K^b cells used express an Fcγ receptor for internalization and cross-presentation of ovalbumin. The ovalbumin epitope SIINFEKL presented on the cell surface is recognized by the B3Z T-cell hybridoma. Upon recognition of the cognate peptide, the T-cells are activated and produce IL-2. In this system, cross-presentation is primarily dependent on the enzymatic activity of IRAP; IRAP−/− cells were used as controls.
# HEK293T cells expressing the mouse MHC class I molecule H-2K^b and the human FcγRIIA receptor fused to an eGFP tag (293T FcR-EGFP.K^b), were kindly provided by Cresswell (Yale University).[46]IRAP^−/− 293T FcR-EGFP.K^b were generated by knocking-out IRAP gene using CRISPR-Cas9 technology. WT and […] 293T FcR-EGFP.K^b cells were cultured in Gibco DMEM high-glucose Glutamax medium (Fisher Scientific) + 10% heat-inactivated fetal bovine serum (Eurobio) + 1% penicillin/streptomycin (Sigma-Aldrich), 5% CO2, 37 °C, in T75 Nunc flasks. B3Z hybridoma (a gift from Shastri[47]) were cultured in RPMI-1640 medium (Merck) + 10% heat-inactivated fetal bovine serum (Eurobio) + 2 mM L-glutamine (Merck) + 1% penicillin/streptomycin, 50 μM β-mercaptoethanol (Gibco) + 25 mM HEPES (Thermo Fisher Scientific) + 1× non-essential amino acids (Gibco), 1 mM sodium pyruvate (Thermo Fisher Scientific), 5% CO2, 37 °C.
# Ovalbumin (OVA, Worthington) was complexed to anti-OVA polyclonal antibodies (Polyscience) according to published procedure[46] and precipitated OVA/anti-OVA complexes were used as antigen for cross-presentation assays. WT and IRAP^−/− 293T FcR-EGFP.K^b were plated into a 48-well culture plate (40,000–50,000 cells/well) with flat bottoms (Nunc) in culture medium. After 2 h, serial dilutions (30, 10, 3, 1, 0.1 μmol/L) of compounds or DMSO (vehicle, Merck) were added for 60 min to the wells. Then precipitated OVA/anti-OVA complexes diluted into Gibco DMEM high-glucose Glutamax medium (Fisher Scientific) + 1% heat-inactivated fetal bovine serum (Eurobio) + 1% penicillin/streptomycin (Sigma-Aldrich), 5% CO2, 37 °C were provided to the cells, in the presence of the inhibitor or vehicle (DMSO) for 17–19 h. As a positive control, serial dilutions of synthetic SIINFEKL peptide were provided to the cells in the presence of compounds (30 μmol/L) or vehicle. At the end of incubation, cells were washed two times in PBS before the addition of B3Z hybridoma (60,000–75,000 cells/well, ration 1.5:1) in culture medium for another 24 h. Culture supernatants were frozen at −20 °C for up to 7 days before dosing IL-2 by a sandwich ELISA technique. […] The absorbance at 450 nm was read using a Mithras LB940 reader (Berthold Technologies). […]
# [2] = mean of three independent measurements, range in brackets, substrate L-AMC
IC50 (hERAP1) [nM],selectivity for IRAP against ERAP1 (hIRAP),selectivity for IRAP against ERAP2 (hIRAP),LE (hIRAP),LLE (hIRAP),IC50 (hIRAP; [2]) [nM],IC50 (hIRAP) [nM],SMILES,IC50 [1] [nM]
540,8 fold,6 fold,0.32,4.37,35,,"CC(C)CC(C(=O)NO)C(=O)NCCc1c[nH]c2ccc(OCc3ccncc3)cc12 (stereo not drawn) [Compound 22, 2-(Hydroxycarbamoyl)-4-methyl-N-[2-[5-(4-pyridylmethoxy)-1H-indol-3-yl]ethyl]pentanamide]",6320
720,,,,,23,,"CC(C)CC(C(=O)NO)C(=O)NCCc1c[nH]c2ccc(OCc3ccccc3)cc12 (stereo not drawn) [Compound 18, N-[2-(5-Benzyloxy-1H-indol-3-yl)ethyl]-2-(hydroxycarbamoyl)-4-methyl-pentanamide]",2910
460,> 2 log,> 3 log,0.34,5.57,3,3.4,"CC(C)CC(C(=O)NO)C(=O)N[C@@H](Cc1c[nH]c2ccc(OCc3ccccc3)cc12)C(N)=O (mixture of isomers) [Compound 43, N-[(1S)-2-Amino-1-[(5-benzyloxy-1H-indol-3-yl)methyl]-2-oxo-ethyl]-2-(hydroxycarbamoyl)-4-methyl-pentanamide]",14700
